From paper PMC4171615, “Discovery of selective inhibitors of Glutaminase-2, which inhibit mTORC1, activate autophagy and inhibit proliferation in cancer cells” (Oncotarget, 2014)
Numbering of substitutions follows the chain as printed.

Legend:
KGA_D520K = molecular target: T1, KGA_D520K (Homo sapiens, UniProt O94925, D520K); assay: Glutaminase activity assay, KGA mutant D520K; format: biochemical
T1 construct: a KGA cDNA fragment of 1644 bp (residues Leu123-Leu669); His-tag (N); made in house; host or cells: Escherichia coli
T1 sequence (O94925 123-669 D520K): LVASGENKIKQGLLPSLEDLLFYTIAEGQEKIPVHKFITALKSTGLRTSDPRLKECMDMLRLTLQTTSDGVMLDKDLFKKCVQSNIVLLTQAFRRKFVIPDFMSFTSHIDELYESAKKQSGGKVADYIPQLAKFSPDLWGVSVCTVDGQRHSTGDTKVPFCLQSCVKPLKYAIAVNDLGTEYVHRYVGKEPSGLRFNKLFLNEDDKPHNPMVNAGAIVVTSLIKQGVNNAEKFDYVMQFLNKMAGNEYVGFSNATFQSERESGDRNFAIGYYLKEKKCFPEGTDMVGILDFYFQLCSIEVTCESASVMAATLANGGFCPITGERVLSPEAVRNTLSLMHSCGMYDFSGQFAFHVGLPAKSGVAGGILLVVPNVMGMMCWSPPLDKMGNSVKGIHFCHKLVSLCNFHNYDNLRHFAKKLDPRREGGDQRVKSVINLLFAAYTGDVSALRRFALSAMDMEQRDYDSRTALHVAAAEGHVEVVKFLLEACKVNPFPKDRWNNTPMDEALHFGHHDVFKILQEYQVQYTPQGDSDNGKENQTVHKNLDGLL
Procedure: (§1) Human glutaminase activity was measured using a two-step assay as described previously. A microtiter assay format was used to facilitate the collection of multiple data points. Typically, 10 μl of compound, which was dissolved in DMSO, was added to 80 μl of an initial assay mix (0.1 mM hKGA, 0.2 mM EDTA and 50 mM Tris/acetate, pH 8.6). Samples were incubated at 25°C for 10 min and then 10 μl of 200 mM glutamine were added to the reaction mix. After adding glutamine, the reactions were incubated at 37°C for 60 min and then quenched by the addition of 10 μl of 0.6 M HCl. Subsequently, 100 μl of a second reaction mixture (3.7 units of purified bovine liver glutamate dehydrogenase, 160 mM Tris/acetate [pH 9.4], 400 mM hydrazine, 5 mM ADP and 2 mM NAD^+) was added to the stopped first reaction mixture and incubated for 30 min at 25°C. The absorbance at 340 nm was measured using a Wallac Victor2V plate reader (PerkinElmer), fitted with a 340 nm excitation filter. Sample absorbance was measured against a blank, containing no human glutaminase.
Site-directed mutagenesis was performed on the pET28a(+)-GAB or pET28a(+)-KGA plasmids using PfuUltra II Fusion HS DNA polymerase (Agilent Technologies) to create the GAB and KGA mutants. […] The sequence alignment was compared with crystal structure of the GAC (PDB code: 3UO9) and the resulting model of GAB was analyzed using the Swiss-PDB server. […]

KGA_Y394L = molecular target: T2, KGA_Y394L (Homo sapiens, UniProt O94925, Y394L); assay: Glutaminase activity assay, KGA mutant Y394L; format: biochemical
T2 construct: a KGA cDNA fragment of 1644 bp (residues Leu123-Leu669); His-tag (N); made in house; host or cells: Escherichia coli
T2 sequence (O94925 123-669 Y394L): T1 sequence (O94925 123-669 D520K) with Y272L, K398D
Procedure: as §1, with “Typically, 10 μl of compound, which was dissolved in DMSO, was added to 80 μl of an initial assay mix (0.1 mM hKGA, 0.2 mM EDTA and 50 mM Tris/acetate, pH 8.6).” left out
Site-directed mutagenesis was performed on the pET28a(+)-GAB or pET28a(+)-KGA plasmids using PfuUltra II Fusion HS DNA polymerase (Agilent Technologies) to create the GAB and KGA mutants. The deep view program (Version 3.7) of the Swiss-MODEL server was used to generate the three dimensional structure of homologous modeled GAB. Using the integrated sequence alignment tools and structural superimposition algorithms, the target sequence was mapped on the modeling templates.

CCCCCCCCCCCCCC(CC1=CC(=O)C=C(OC)C1=O)OC(C)=O (centres unmarked) [AV-1]
IC50 (KGA_D520K): 290 ± 30 nM | IC50 (KGA_Y394L): 1400 ± 200 nM
